The values that follow come from patent US20090305994A1, “Compounds Modulating Vegf Receptor and Uses Thereof” (priority 2005, published 2009).

One experiment concerns the target T1, KDR (Bos taurus, UniProt A0AAA9SPC9).
T1 construct: we immunoprecipitated total KDR and Flt-1 from BAEC whole extracts; endogenous in cells; host or cells: BAEC (bovine aorta endothelial cells, SV40-immortalized)
Briefly: KDR activation (immunoprecipitation, phospho-tyrosine western blot) in BAEC. Type of experiment: cell-based, bovine. Conditions: 15 minutes of exposure. The procedure: VEGF receptors binding and activation. a) VEGF competitive binding on BAEC. 1 μg of membrane protein was plated with QK and [^125I]-VEGF (500000 cpm, 10^−10 M). b) KDR activation. After stimulation total KDR was immunoprecipitated from a whole-cell protein extracts and phospho-tyrosine was visualized by a specific antibody, anti-rabbit HRP-conjugated secondary antibody and standard chemiluminescence. c) Flt-1 activation. After stimulation total Flt-1 was immunoprecipitated from a whole-cell protein extracts and phospho-tyrosine was visualized by specific antibody, anti-rabbit HRP-conjugated secondary antibody and standard chemiluminescence.
Western blot. Cells were plated on six-well dishes and serum starved overnight. On the next day, cells were treated with different amount of peptide in absence or in presence of VEGF165 for 15 minutes at 37° C. and then dissolved in RIPA-SDS buffer (50 mM Tris-HCl (pH 7.5), 150 mM NaCl, 1% NP-40, 0.25% deoxycholate, 9.4 mg/50 ml sodium orthovanadate, […]). In some experiments, total KDR and Flt-1 were immunoprecipitated from an equal amount of whole-cell protein extracts using protein A/G agarose beads conjugated with antibodies raised against total KDR or Flt-1 (R&D). Proteins from whole-cell extracts or immunocomplexes were resolved by PAGE and transferred to nitrocellulose. […]

A further experiment relates to WKY rats. The experiment is described as follows: Ischemic hindlimb model, digital angiographies and blood flow determination. Conditions: 14 days. Type of experiment: in vivo, rat.

T1 sequence (A0AAA9SPC9 20-1356): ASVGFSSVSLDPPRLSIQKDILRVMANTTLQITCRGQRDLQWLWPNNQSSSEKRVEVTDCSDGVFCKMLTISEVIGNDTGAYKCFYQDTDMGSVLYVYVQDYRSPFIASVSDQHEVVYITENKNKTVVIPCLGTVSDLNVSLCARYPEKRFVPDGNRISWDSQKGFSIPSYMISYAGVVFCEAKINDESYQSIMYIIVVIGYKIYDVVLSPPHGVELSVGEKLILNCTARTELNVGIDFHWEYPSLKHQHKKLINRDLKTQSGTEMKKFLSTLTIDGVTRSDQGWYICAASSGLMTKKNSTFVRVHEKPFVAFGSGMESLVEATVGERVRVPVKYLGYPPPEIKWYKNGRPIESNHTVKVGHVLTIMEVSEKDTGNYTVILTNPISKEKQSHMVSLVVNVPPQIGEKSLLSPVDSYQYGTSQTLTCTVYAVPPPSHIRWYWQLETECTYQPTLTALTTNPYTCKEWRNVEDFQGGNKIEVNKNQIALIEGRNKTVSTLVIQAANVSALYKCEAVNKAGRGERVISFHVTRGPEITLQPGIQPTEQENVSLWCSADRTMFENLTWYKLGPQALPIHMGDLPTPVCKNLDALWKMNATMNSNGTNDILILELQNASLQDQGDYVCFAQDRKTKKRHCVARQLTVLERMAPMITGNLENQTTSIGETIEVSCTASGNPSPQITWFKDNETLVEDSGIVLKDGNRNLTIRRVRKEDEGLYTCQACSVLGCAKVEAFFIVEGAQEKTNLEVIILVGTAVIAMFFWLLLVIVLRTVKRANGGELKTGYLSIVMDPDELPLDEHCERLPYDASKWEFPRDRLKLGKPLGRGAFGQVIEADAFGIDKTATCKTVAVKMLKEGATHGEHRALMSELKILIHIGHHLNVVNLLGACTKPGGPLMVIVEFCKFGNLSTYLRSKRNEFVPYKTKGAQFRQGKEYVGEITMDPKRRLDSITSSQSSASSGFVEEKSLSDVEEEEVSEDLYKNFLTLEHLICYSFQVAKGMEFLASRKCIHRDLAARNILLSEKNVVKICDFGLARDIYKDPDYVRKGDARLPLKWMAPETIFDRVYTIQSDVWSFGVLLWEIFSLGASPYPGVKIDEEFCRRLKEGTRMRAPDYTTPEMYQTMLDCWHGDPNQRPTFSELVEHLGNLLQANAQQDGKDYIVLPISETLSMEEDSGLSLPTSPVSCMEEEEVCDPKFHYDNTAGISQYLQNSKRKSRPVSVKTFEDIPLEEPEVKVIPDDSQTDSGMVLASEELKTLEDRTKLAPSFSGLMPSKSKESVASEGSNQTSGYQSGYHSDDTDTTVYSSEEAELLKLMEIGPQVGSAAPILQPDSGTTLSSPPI

In the case of KLTWQELYQLKYKGI [QK], the phospho-KDR levels entry at KDR is “reduced phospho-KDR below the levels in unstimulated cells”. Besides, the “BEADS Ischemic to non ischemic” value with WKY rats (dyed beads dilution, muscle ratio, infusion 10^-7 M) was 0.98 ± 0.12. Also, the “ANGIOGRAPHY Number of TFC” value with WKY rats (ischemic hindlimb, chronic intrafemoral artery infusion 10^-7 M) amounted to 16 ± 2.
